Usually Ki stands for a measure of affinity in units of concentration, obtained from inhibition or displacement.

The target in the experiment is Thrombin (Homo sapiens). The experiment in a line: The compound was tested for its ability to inhibit thrombin.

Structures are written as SMILES.

For `Cc1nc(N)ccc1CNC(=O)Cn1c(C)cc2c(c1=O)NC(=O)[C@](C)(CC(C)C)C2` [N-(6-Amino-2-methyl-pyridin-3-ylmethyl)-2-((R)-3-isobutyl-3,6-dimethyl-2,8-dioxo-2,3,4,8-tetrahydro-1H-[1,7]naphthyridin-7-yl)-acetamide], affinity was put at a Ki of 240 pM.

These data come from BindingDB's records for doi:10.1016/s0960-894x(00)00170-0 (Merck Research Laboratories, 2000).
